Here are results for 13 compounds from patent publication US5177240A, “o-Phosphono(alkyl)-N-sulfonyl-phenyl-alanine derivatives useful as intermediates for preparation of phosphono-hydroisoquinolines” (G. D. Searle & Co., priority 1990, dated 1993).

One may read the Ki as a measure of affinity in units of concentration, obtained from inhibition or displacement. Usually IC50 stands for the point on the concentration scale where inhibition reaches its midpoint. The IC20 is the concentration needed for an effect of 20%.

The target in one assay is NMDA receptor. Put plainly: NMDA receptor binding assay (NMDA-specific L-[3H]-glutamate binding, synaptic plasma membranes). The conditions noted are these: 12.5 nM L-[3H]-glutamate, pH 7.4, 0-4° C., 10 min. The method, then: Synaptic plasma membranes (SPM) were prepared as previously described Monahan, J. B. and Michel, J., "Identification and Characterization of an N-methyl-D-aspartate-specific L-[^3 H]-glutamate Recognition Site in Synaptic Plasma Membranes, J. Neurochem., 48, 1699-1708 (1987)]. The SPM were stored at a concentration of 10-15 mg/ml in 0.32M sucrose, 0.5 mM EDTA, 1 mM MgSO4, 5 mM Tris/sulfate, pH 7.4, under liquid nitrogen. The identity and purity of the subcellular fractions were confirmed by both electron microscopy and marker enzymes. Protein concentrations were determined by using a modification of the method of Lowry [Ohnishi, S. T. and Barr, J. K., "A Simplified Method of Quantitating Proteins Using the Biuret and Phenol Reagents", Anal. Biochem., 86, 193-197 (1978)]. The SPM were treated identically for the [^3 H]AMPA (QUIS), [^3 H]kainate and sodium-dependent L-[^3 H]-glumatate binding assays. The SPM were thawed at room temperature, diluted twenty-fold with 50 mM Tris/acetate, pH 7.4, incubated at 37° C. for 30 minutes, and centrifuged at 100,000 g for 15 minutes. The dilution, incubation and centrifugation were repeated a total of three times. Prior to use in the NMDA-specific L-[^3 H]-glutamate binding assay, the SPM were thawed, diluted twenty fold with 50 mM Tris/acetate (pH 7.4 containing 0.04% (v/v) Triton X-100), incubated for 30 minutes at 37° C. and centrifuged as described above. The Triton X-100 treated membranes were washed with 50 mM Tris/acetate (pH 7.4) and centrifuged at 100,000 g for 15 minutes a total of four times. The basic procedure for the receptor subclass binding assays was similar. This general method involved adding the radioligand (12.5 nM L-[^3 H]-glutamate; 0.5 nM [^3 H]kainate or 10nM [^3 H]AMPA) to the appropriate concentration of the test compound and initiating the assay by the addition of ice cold synaptic plasma membranes (0.2-0.45 mg). The binding assays were performed in 1.5 mL centrifuge tubes with the total volume adjusted to 1.0 mL. Additions of test compounds were made in 50 mM Tris/acetate (pH 7.4) and incubations were carried out at 0°-4° C. The incubation time for each of the NMDA and the AMPA binding assays was 10 minutes, for the kainate binding assay 60 minutes and for the sodium-dependent glutamate binding assay 15 minutes. The AMPA binding assay contained 100 mM KSCN and the sodium-dependent glutamate binding assay contained 150 mM sodium acetate in addition to the previously described reagents. To terminate the incubation, the samples were centrifuged for 15 minutes at 12,000 g and 4° C. in a Beckman Microfuge 12. The supernatant was aspirated and the pelleted membranes dissolved in Beckman BTS-450 tissue solubilizer for a minimum of 6 hours at room temperature. Beckman MP scintillation cocktail containing 7 mL/L acetic acid was then added and the samples counted on a Beckman LS 5800 or 3801 liquid scintillation counter with automatic corrections for quenching and counting efficiency. Nonspecific binding was defined as the residual binding in the presence of either excess L-glutamate (0.1-0.4 mM), kainate (0.01 mM), or NMDA (0.5 mM), and was 15-25% of the total binding in the NMDA binding assay, 19-27% in the AMPA binding assay, 20-30% in the kainate binding assay and 10-15% in the sodium-dependent binding assay. Radioligand binding to the synaptic plasma membranes was analyzed using Scatchard and Hill transformations and the Ki values of the compounds determined using logit-log transformations. Calculations and regression analysis were performed using templates developed for Lotus 1, 2, 3 as previously described [Pullan, L. M. "Automated Radioligand Receptor Binding Analysis with Templates for Lotus", Computer Appln. Biosci., 3 131 (1987)]. Binding results are reported in Table II for example compounds of the invention. Included in Table II are binding data for D,L-AP7[D,L-2-amino-7-phosphonoheptanoic acid].

The target of assay [1] is Quis (quisqualate) receptor. Put plainly: Quisqualate (QUIS) receptor binding assay ([3H]AMPA, synaptic plasma membranes). The settings on record: 10 nM [3H]AMPA, 100 mM KSCN, pH 7.4, 0-4° C., 10 min; read-out: NMDA receptor binding Ki, Quis. The method, then: (§1) Synaptic plasma membranes (SPM) were prepared as previously described Monahan, J. B. and Michel, J., "Identification and Characterization of an N-methyl-D-aspartate-specific L-[^3 H]-glutamate Recognition Site in Synaptic Plasma Membranes, J. Neurochem., 48, 1699-1708 (1987)]. The SPM were stored at a concentration of 10-15 mg/ml in 0.32M sucrose, 0.5 mM EDTA, 1 mM MgSO4, 5 mM Tris/sulfate, pH 7.4, under liquid nitrogen. The identity and purity of the subcellular fractions were confirmed by both electron microscopy and marker enzymes. Protein concentrations were determined by using a modification of the method of Lowry [Ohnishi, S. T. and Barr, J. K., "A Simplified Method of Quantitating Proteins Using the Biuret and Phenol Reagents", Anal. Biochem., 86, 193-197 (1978)]. The SPM were treated identically for the [^3 H]AMPA (QUIS), [^3 H]kainate and sodium-dependent L-[^3 H]-glumatate binding assays. The SPM were thawed at room temperature, diluted twenty-fold with 50 mM Tris/acetate, pH 7.4, incubated at 37° C. for 30 minutes, and centrifuged at 100,000 g for 15 minutes. The dilution, incubation and centrifugation were repeated a total of three times. Prior to use in the NMDA-specific L-[^3 H]-glutamate binding assay, the SPM were thawed, diluted twenty fold with 50 mM Tris/acetate (pH 7.4 containing 0.04% (v/v) Triton X-100), incubated for 30 minutes at 37° C. and centrifuged as described above. The Triton X-100 treated membranes were washed with 50 mM Tris/acetate (pH 7.4) and centrifuged at 100,000 g for 15 minutes a total of four times. The basic procedure for the receptor subclass binding assays was similar. […] Beckman MP scintillation cocktail containing 7 mL/L acetic acid was then added and the samples counted on a Beckman LS 5800 or 3801 liquid scintillation counter with automatic corrections for quenching and counting efficiency. […] Radioligand binding to the synaptic plasma membranes was analyzed using Scatchard and Hill transformations and the Ki values of the compounds determined using logit-log transformations. […]

The next assay deals with KA (kainate) receptor. Put plainly: Kainate (KA) receptor binding assay ([3H]kainate, synaptic plasma membranes). The conditions noted are these: 0.5 nM [3H]kainate, pH 7.4, 0-4° C., 60 min. The method, then: as §1, with “assays.” for “assays. The SPM were thawed at room temperature, diluted twenty-fold with 50 mM Tris/acetate, pH 7.4, incubated at 37° C. for 30 minutes, and centrifuged at 100,000 g for 15 minutes. The dilution, incubation and centrifugation were repeated a total of three times. Prior to use in the NMDA-specific L-[^3 H]-glutamate binding assay, the SPM were thawed, diluted twenty fold with 50 mM Tris/acetate (pH 7.4 containing 0.04% (v/v) Triton X-100), incubated for 30 minutes at 37° C. and centrifuged as described above. The Triton X-100 treated membranes were washed with 50 mM Tris/acetate (pH 7.4) and centrifuged at 100,000 g for 15 minutes a total of four times. The basic procedure for the receptor subclass binding assays was similar.”

In another assay the target is [3H]MK-801 receptor. Put plainly: MK-801 Modulation Assay ([3H]MK-801 binding, synaptic plasma membranes from rat forebrain). The conditions noted are these: 2.0 nM [3H]MK-801, pH 7.4, 120 min, 25° C.; decrease in specific basal binding; read-out: IC50, inhibition of [3H]MK-801 binding. The method, then: [^3 H]MK-801 binding was performed using Triton X-100 washed synaptic plasma membranes (SPM) prepared from rat forebrain (30-45 day old, male Sprague-Dawley; Sasco, St. Charles, MO) as described previously [J. W. Thomas, W. F. Hood, J. B. Monahan, P. C. Contreras and T. L. O'Donohue, Brain Res., 442, 396-398 (1988)]. The assay was initiated by the addition of SPM (0.20-0.30 mg) to an incubation containing 2.0 nM [^3 H]MK-801 (15 Ci/mmole; New England Nuclear, Boston, MA) and various concentrations of the appropriate test compound in a total volume of 0.5 ml (all additions were made in 50mM Tris/acetate buffer, pH 7.4) and continued for 120 min at 25° C. The samples were then filtered through glass fiber filters (Schleicher and Schuell #32) which were pretreated with 0.05% (v/v) polyethylenimine. The filters were washed and the radioactivity quantitated by liquid scintillation spectrometry. Inhibition of [^3 H]MK-801 binding was measured as a decrease in specific basal binding (basal binding=2583 ±381 DPM) with nonspecific binding as the residual binding in the presence of 60 μM MK-801 (562 ±30 DPM).

The subject of a further assay is [3H]glycine binding. Put plainly: Glycine Binding Assay ([3H]glycine, synaptic plasma membranes from rat forebrain). The conditions noted are these: 10 nM [3H]glycine, pH 7.4. The method, then:
Synaptic plasma membranes (SPM) were prepared from rat forebrain and stored as previously described [J. B. Monahan and J. Michel, J. Neurochem., 48, 1699-1708 (1987)]. Frozen membranes were thawed and diluted 1:20 with 0.04% Triton X-100 in 50 mM Tris/acetate (pH 7.4). Following incubation at 37° C. for 30 min., the SPM were collected by centrifugation at 95,000×g for 15 min. The pellet was resuspended in 50 mM Tris/acetate (pH 7.4, Triton-free) and hand-homogenized five times. The membranes were again centrifuged as above. The pellet was washed two additional times with 50 mM Tris/acetate (without homogenization) and centrifuged. The final pellet was resuspended with homogenization in 50 mM Tris/acetate. In the general receptor binding assay procedure, 10 nM [^3 H]glycine was added to the appropriate concentration of the test compounds and the assay initiated by the addition of 0.2-0.4 mg of ice cold SPM. […] Beckman MP scintillation cocktail (5 ml) containing 7 ml/liter acetic acid was then added and the samples counted on a Beckman LS 5800 liquid scintillation counter with automatic corrections for quenching and counting efficiency. […] The binding of [^3 H]glycine to the SPM was analyzed using Scatchard and Hill transformations and the Ki for other compounds was determined using logit-log analysis. […]

Assay [2] has as its system TCP (1-[1-(2-thienyl)-cyclohexyl]piperidine) binding. Put plainly: TCP Modulation Assay ([3H]TCP binding, rat brain synaptic membranes). The conditions noted are these: 2 nM tritiated TCP, 0.05 mM L-glutamate, pH 7.4, 25° C., 60 min. The method, then: The effect on the TCP (1-[1-(2-thienyl)-cyclohexyl]piperidine) binding was measured in rat brain synaptic membranes (SPM) prepared as previously described [J. B. Monahan & J. Michel; J. Neurochem. 48:1699-1708 (1987)]. Prior to their use in the binding assay, frozen SPM were thawed, diluted twenty fold with 50 mM Tris/acetate (pH 7.4 containing 0.04% (v/v) Triton X-100), incubated for 30 min. at 37° C. and centrifuged at 95,000×g for 15 min. The Triton X-100 treated SPM were washed with 5 mM Tris/HCl, pH 7.4 and centrifuged a total of six times. The compound of Example II was incubated at different concentrations with SPM (0.2-0.4 mg protein) and 2 nM tritiated TCP, in a total volume of 0.5 ml of 5 mM Tris/HCl buffer pH 7.4 at 25° C. for 60 min. The samples were filtered through glass fiber filters (Schleicher & Schuell #32) which have been pretreated with 0.05% (v/v) polyethylenimine, washed 4 times with 2 ml of ice-cold 5 mM Tris/HCl buffer, and then counted on a Beckman LS 5800 liquid scintillation counter with automatic corrections for quenching and counting efficiency. Inhibition of TCP binding was measured as a decrease in the binding in the presence of 0.05 mM L-glutamate. Non-specific binding was defined as the residual binding in the presence of 60 […].

At NMDA receptor, `O=C(O)C1CC2C(CCCC2P(=O)(O)O)CN1` (centres unmarked) [Ex. 6] returned a Ki of 11200 nM.

For the compound `NC(CCCCCP(=O)(O)O)C(=O)O` (racemic) [D,L-AP7, D,L-2-amino-7-phosphonoheptanoic acid], the Ki is 5400 nM at NMDA receptor and more than 300000 nM in assay [1].

As to `O=C(O)C1Cc2c(cccc2P(=O)(O)O)CN1` (single isomer, unassigned) [Ex. 14], affinity at NMDA receptor was put at a Ki of 3100 nM.

For the compound `Cl.O=C(O)C1Cc2c(cccc2P(=O)(O)O)CN1` (centres unmarked) [Ex. 2, 3-carboxy-5-phosphono-1,2,3,4-tetrahydroisoquinoline hydrochloride], the results for the Ki (at NMDA receptor; in assay [1]) were 1600 nM and more than 300000 nM, respectively. On KA (kainate) receptor, the “Kainate receptor binding Ki” value was ~ 300 μM. The IC50 in assay [3H]MK-801 receptor worked out at 480 nM. Moreover, in assay [3H]glycine binding, the “maximum inhibition of [3H]-glycine binding” value is on record as “approximately 40%”. In assay [3H]glycine binding (calculated, based on maximum inhibition of approximately 40%), the IC20 was 1900 nM. The “inhibition of TCP binding” value in assay [2] (at 5 μM) was 64%; in assay [2] (at 50 μM) it was 91%.

Regarding `O=C(O)C1CC2C(CCCC2P(=O)(O)O)CN1` (centres unmarked) [Ex. 7], affinity at NMDA receptor was put at a Ki of 1300 nM.

`Cc1ccc2c(c1P(=O)(O)O)CC(C(=O)O)NC2` (centres unmarked) [Ex. 16] showed a Ki on NMDA receptor of 5900 nM.

On NMDA receptor, `O=C(O)C1CC2=C(CC=CC2P(=O)(O)O)CN1` (centres unmarked) [Ex. 3, 3-carboxy-5-phosphono-1,2,3,4,5,8-hexahydroisoquinoline] showed a Ki of 3000 nM.

In the case of `O=C(O)C1Cc2c(cccc2CP(=O)(O)O)CN1` (centres unmarked) [Ex. 17, 3-carboxy-5-(phosphonomethyl)-1,2,3,4-tetrahydroisoquinoline], the affinity at NMDA receptor, expressed as Ki, was 18000 nM.

Consider `O=C(O)C1CC2C(CCCC2P(=O)(O)O)CN1` (centres unmarked) [Ex. 5], for which, on NMDA receptor, the Ki stood at 1600 nM. The IC50 in assay [3H]MK-801 receptor came out at 1380 nM.

Regarding `O=C(O)C1Cc2c(cccc2P(=O)(O)O)CN1` (single isomer, unassigned; (+)) [Ex. 13, (+)-3-carboxy-5-phosphono-1,2,3,4-tetrahydroisoquinoline], on NMDA receptor, the affinity, expressed as Ki, was 900 nM.

Take `N[C@H](CCCCCP(=O)(O)O)C(=O)O` [D-AP7]: the Ki is 4000 nM on NMDA receptor and more than 300000 nM in assay [1].

Consider `CCOC(=O)C1Cc2c(cccc2P(=O)(O)O)CN1` (centres unmarked) [Ex. 15, 5-phosphono-3-(ethoxycarbonyl)-1,2,3,4-tetrahydroisoquinoline], for which the Ki at NMDA receptor is more than 100000 nM.

As to `O=C(O)C1CC2=C(CCCC2P(=O)(O)O)CN1` (centres unmarked) [Ex. 4, 3-carboxy-5-phosphono-1,2,3,4,5,6,7,8-octahydroisoquinoline], the affinity on NMDA receptor, expressed as Ki, was 1200 nM.
